{
  "source": "patent US6482934B1",
  "about": "“Methods and compositions for detecting and treating kidney diseases associated with adhesion of crystals to kidney cells” (ARCH Development Corp., priority 1995, dated 2002)",
  "key": {"BSC-1 cells [1]": {"test_system": "BSC-1 cells", "assay": "[14C]COM crystal adhesion to BSC-1 cell monolayers", "format": "cell-based, African green monkey", "method": "(§1) Renal epithelial cells of the nontransformed African green monkey line (BSC-1) were used. Cells were grown in Dulbecco-Vogt modified Eagle's medium containing 25 mM glucose (DMEM), 1.6 μM biotin and 1% calf serum at 38° C. in a CO2 incubator. Under these conditions, BSC-1 cells achieved confluence at 10^6 cells per 60-mm plastic dish (Nunc). High-density, quiescent cultures were prepared by plating 2×10^6 cells in a 60-mm dish. The spent medium was changed after 3 days so that there were 3-4×10^6 cells/dish 6 days later. Medium was then aspirated and replaced with fresh medium containing […] and 0.01% calf serum; 3 days later the quiescent cultures were used for study.\n(§2) Crystals are sterilized by heating to 180° C. overnight.\n(§3) High-density, quiescent cultures of BSC-1 cells, MDCK cells, or Balb/c3T3 fibroblasts are prepared. At the time of assay, the medium is aspirated and replaced with 5 ml of phosphate-buffered saline (PBS) (10 mM Na2PO4, 155 mM NaCl, 5.4 mM KCl, pH 7.4 at 37° C.) to which the compound under investigation is added. […] The culture dishes are gently agitated for 5 seconds to uniformly distribute crystals which subsequently settle to the surface of the cell monolayer under the force of gravity. After two minutes buffer is aspirated and the cells are then washed three times with PBS (5 ml). The cell monolayer is then scraped directly into a scintillation vial containing 6 N HCl (0.5 ml) to which 4.5 ml of Ecoscint (National Diagnostics, E. Palmetto, Fla.) is added, and the amount of radioactivity is measured as described by Riese, et al. (1992)."}, "BSC-1 cells [2]": {"test_system": "BSC-1 cells", "assay": "Crystal endocytosis by BSC-1 cells", "format": "cell-based, African green monkey", "method": "as §1\n(§4) At specified times after addition of crystals to high-density, quiescent cultures the medium was aspirated and a solution of crystalline trypsin was used to detach cells which were then inspected under a polarizing microscope. One hundred cells from each culture were counted, and each cell was scored for the presence of one or more internalized crystal(s)."}, "BSC-1 cells [3]": {"test_system": "BSC-1 cells", "assay": "Endocytosis of agent-coated COM crystals by BSC-1 cells", "format": "cell-based, African green monkey", "conditions": "THP 5×10^−8 M; 6×10^−10M in the medium", "from_the_text": "as §4"}, "MDCK cells [4]": {"test_system": "MDCK cells", "assay": "[14C]COM crystal adhesion to MDCK cells", "format": "cell-based, canine", "conditions": "0.55 μM heparin", "method": "(§5) Madin-Darby Canine Kidney (MDCK) cells were grown in DMEM containing 2% calf serum and 1.6 μM biotin as described previously. To prepare high-density, quiescent cultures 2×10^6 cells/60-mm dish were plated in DMEM containing 2% calf serum and 1.6 μM biotin. The next day medium was aspirated and replaced with fresh medium containing 0.5% calf serum and biotin. One day later the cultures were used for study.\nas §2, §3"}, "Balb/c3T3 fibroblasts [5]": {"test_system": "Balb/c3T3 fibroblasts", "assay": "[14C]COM crystal adhesion to 3T3 fibroblasts", "format": "cell-based", "conditions": "0.55 μM heparin; COM crystals 200 μg/ml", "method": "(§6) Balb/c3T3 fibroblasts were grown in DMEM containing 10% calf serum. To prepare high-density, quiescent cultures, 7×10^5 cells were plated per 60-mm dish. Two days later the medium was aspirated and replaced with fresh medium containing 1% calf serum and 1.6 μM biotin; the cells were used one day later when a density of […] was reached.\nas §2, §3"}, "BSC-1 cells [6]": {"test_system": "BSC-1 cells", "assay": "Adhesion of agent-coated COM crystals to BSC-1 cells", "format": "cell-based, African green monkey", "conditions": "compared with uncoated control crystals", "method": "Each tube is then centrifuged at 3000 g for 5 minutes. The supernatant is gently aspirated and replaced with a supersaturated calcium oxalate solution to resuspend the coated crystals. To assure removal of any nonabsorbed compound, crystals are resuspended and washed three times in succession. Cell-associated radioactivity is determined 2 minutes after addition of these coated crystals as described herein."}, "MDCK cells [7]": {"test_system": "MDCK cells", "assay": "Crystal endocytosis by MDCK cells", "format": "cell-based, canine", "conditions": "heparin; COM crystals 200 μg/ml", "method": "as §5, §4"}, "Balb/c3T3 fibroblasts [8]": {"test_system": "Balb/c3T3 fibroblasts", "assay": "Crystal endocytosis by Balb/c3T3 fibroblasts", "format": "cell-based", "conditions": "heparin; COM crystals 200 μg/ml", "method": "as §6, §4"}},
  "note": "Like-named read-outs stand apart in the source and are kept apart here.",
  "data": [
    {"substance": "THP: urinary Tamm-Horsfall glycoprotein, most abundant protein in human urine", "values": [
      {"measurement": "effect on adhesion of COM crystals to BSC-1 cells (in words)", "setting": "BSC-1 cells [1]", "result": "no effect"},
      {"measurement": "Half-maximal concentration", "setting": "BSC-1 cells [1]; concentration that inhibited crystal adhesion by 50%, N.I. = noninhibitory", "result": "N.I."},
      {"measurement": "effect on adhesion of COM crystals to BSC-1 cells (in words)", "setting": "BSC-1 cells [1]; listed as Tamm-Horsfall glycoprotein", "result": "did not"},
      {"measurement": "Langmuir affinity constant (dissociation constant)", "setting": "BSC-1 cells [1]; slope of Langmuir isotherm plot of crystal adhesion, N.I. = noninhibitory", "result": "N.I."},
      {"measurement": "decrease in COM crystal endocytosis", "setting": "BSC-1 cells [2]; THP 5×10−8 M", "result": 34, "unit": "%"},
      {"measurement": "decrease in COM crystal endocytosis", "setting": "BSC-1 cells [2]; THP 10^−8 M", "result": 21, "unit": "%"},
      {"measurement": "endocytosis of crystals incubated with THP and added directly without centrifuging", "setting": "BSC-1 cells [3]", "result": "to the same extent as uncoated crystals"}
    ]},
    {"substance": "heparin", "values": [
      {"measurement": "effect on adhesion of COM crystals to BSC-1 cells (in words)", "setting": "BSC-1 cells [1]", "result": "blocked"},
      {"measurement": "IC50", "setting": "BSC-1 cells [1]; concentration that inhibited crystal adhesion by 50%, N.I. = noninhibitory, read-out: Half-maximal concentration", "result": 15, "unit": "nM"},
      {"measurement": "adhesion of crystals after heparin added later than crystals", "setting": "BSC-1 cells [1]; heparin 10 μg/ml (0.55 μM) added 1 to 30 minutes after crystals, measured after 60 minutes", "result": "appeared to stop immediately"},
      {"measurement": "displacement of crystals already bound to cells", "setting": "BSC-1 cells [1]; heparin 10 μg/ml present for up to an additional 55 minutes", "result": "did not appear to displace crystals already bound to cells"},
      {"measurement": "decrease in adherence of COM crystals", "setting": "BSC-1 cells [1]; heparin 18,000 Da at 0.006 μM", "result": 33, "unit": "%"},
      {"measurement": "Maximal inhibition of COM crystal adhesion", "setting": "BSC-1 cells [1]; heparin 18,000 Da at concentrations above 0.028 μM", "result": 95, "unit": "%"},
      {"measurement": "Kd", "setting": "BSC-1 cells [1]; slope of Langmuir isotherm plot of crystal adhesion, N.I. = noninhibitory, read-out: Langmuir affinity constant (dissociation constant)", "result": 43, "unit": "nM"},
      {"measurement": "maximal inhibition of adhesion of COM crystals to MDCK cells", "setting": "MDCK cells [4]", "result": 89, "unit": "%"},
      {"measurement": "decrease in adhesion of COM crystals to 3T3 fibroblasts", "setting": "Balb/c3T3 fibroblasts [5]", "result": 85, "unit": "%"},
      {"measurement": "adhesion of crystals previously coated with the molecule", "setting": "BSC-1 cells [6]", "result": "less than control"},
      {"measurement": "combined inhibitory effects on COM crystal endocytosis", "setting": "BSC-1 cells [2]; RGDS 10 μg/ml, heparin 5 μg/ml and TGF-β2 2 ng/ml", "result": "not additive"},
      {"measurement": "decrease in COM crystal endocytosis compared to control", "setting": "BSC-1 cells [2]; heparin 2 μg/ml", "result": 36, "unit": "%"},
      {"measurement": "effect on COM crystal uptake at higher concentration", "setting": "BSC-1 cells [2]; heparin as high as 100 μg/ml", "result": "did not inhibit uptake further"},
      {"measurement": "inhibition of COM crystal endocytosis in MDCK cells", "setting": "MDCK cells [7]", "result": 60, "unit": "%"},
      {"measurement": "inhibition of COM crystal endocytosis in fibroblasts", "setting": "Balb/c3T3 fibroblasts [8]", "result": 24, "unit": "%"}
    ]}
  ]
}
